What was measured:
Assay in all cases: two-electrode voltage clamp, agonist-induced current in oocytes
Format in all cases: cell-based
Conditions in all cases: read-out: Glycine Dose-Response Relationship / EC50, -50 mV, ND96 without Ca2+, pH 7.4, 21-23 °C
[1] = system: T1, GlyRα1
T1 construct: gene GLRA1; homomeric receptor (pentamer by known biology); plasmid pNKS2(GlyRα1); cRNA-injected Xenopus laevis oocytes
From the text: two-electrode voltage clamp, agonist-induced current in oocytes on GlyRα1

[2] = system: T2, GlyRα2
T2 construct: gene GLRA2; subunit expressed individually (homopentamer by known biology); plasmid pNKS2(GlyRα2); cRNA-injected Xenopus laevis oocytes
From the text: two-electrode voltage clamp, agonist-induced current in oocytes on GlyRα2

[3] = system: T3, GlyRα3
T3 construct: gene GLRA3; subunit expressed individually (homopentamer by known biology); plasmid pNKS2(GlyRα3); cRNA-injected Xenopus laevis oocytes
From the text: two-electrode voltage clamp, agonist-induced current in oocytes on GlyRα3

EC50 [1]: 162 µM
EC50 [2]: 325 µM
EC50 [3]: 234 µM
Compound: NCC(=O)O [glycine]

— PMC8064320, “Modulation of Glycinergic Neurotransmission may Contribute to the Analgesic Effects of Propacetamol” (Biomolecules, 2021)
